Measurements published in patent US20140364445A1, “PHARMACEUTICAL COMPOSITION COMPRISING A TRPA1 ANTAGONIST AND AN ANTICHOLINERGIC AGENT” (GLENMARK PHARMACEUTICALS S.A., priority 2011, published 2014).
Like-named read-outs stand apart in the source and are kept apart here.

Assays:
[1] = system: LPS induced neutrophilia; experiment: LPS induced neutrophilia, Compound 52 and aclidinium bromide; type: in vivo, male SD rats; details: BAL 4 h after LPS, Compound 52 3 mg/kg p.o., aclidinium 50 mcg/ml inh; for inhibition at 3 mg/kg: Rattus norvegicus, Neutrophil, po, read-out: No of neutrophils, % inhibition (mean ± S.E.M.) (converted)
Description: The effect of combination of Compound 52 and aclidinium bromide on LPS induced neutrophilia in male SD rats was evaluated. Animals were grouped as mentioned in Table 4.
LPS was nebulized at concentration of 100 mcg ml^−1 for 40 min at 0.4 ml/min and a pressure of 1.7 psig in a Perspex exposure chamber (1.5×1×1 ft) fitted with nebulizer (RCI Hudson). Control animals were given saline exposure under similar conditions. All the animals were treated with compounds as mentioned in Table 4. Compound 52 (3 mg/kg/5 ml) was administered orally 2 h prior to LPS and aclidinium (50 mcg/ml) was nebulized at the rate of 0.05 ml/min and exposed to the animals for 3 min prior LPS exposure.
(§1) Bronchoalveolar lavage (BAL) was done after 4 h of LPS exposure. Animals were anesthetized with urethane (1.2 gm/kg/5 mL, i.p. in normal saline) and BAL was done with PBS (3 ml). This procedure was repeated three times and the BAL fluid was pooled for the measurement of total leukocyte. Remaining BAL fluid was centrifuged immediately at 4000 rpm for 20 min. The pellet formed in the bottom of the tube was used for the smear preparation for differential leukocyte count estimation. The smeared slides were fixed by alcohol and stained using Leishman's stain further carried for differential leukocyte count.

[2] = system: methacholine-induced bronchoconstriction; experiment: Methacholine challenge test (methacholine-induced bronchoconstriction), invasive whole body plethysmograph; type: in vivo, male Dunkin Hartley guinea pig; details: for inhibition at 10 mg/kg: Cavia porcellus, read-out: % inhibition in airway resistance (Mean ± SEM)
Description: The effect of Compound 52, tiotropium bromide and their combination on methacholine challenge test in male Dunkin Hartley guinea pig was evaluated using invasive whole body plethysmograph (Elan™ R C, Buxco apparatus). Animals and grouped as described in Table 2.
Animals were anesthetized by intraperitonial injection of urethane (1 g/kg). The surgical process carried out in the aseptic area. Right jugular vein of anesthetized animal was exposed and cannulated with fine bore polythene tube. Trachea was also cannulated for artificial respiration and to measure airway resistance. The prepared animal was fixed in the invasive whole body plethysmograph with artificial respiration (tidal volume −7 ml). Methacholine challenge test was performed and the recordings were taken by the following schedule. • First log period: Baseline −5 min • Second log period: Normal saline −3 min • Third log period: Methacholine −3 min
This protocol was performed for all groups. Compound 52 (10 mg/kg, i.p.) was injected 4 hour prior to methacholine challenge. Tiotropium (0.5 mcg/kg, i.v) was given at second log period. In third log period, the animal was injected with methacholine (60 mcg/kg/2 ml, i.v). The methacholine induced bronchoconstriction (expressed as airway resistance (RI value in cmH2O*sec/ml)) was recorded by Buxco apparatus.

[3] = system: LPS induced neutrophilia; experiment: LPS induced neutrophilia, Compound 52 and ipratropium bromide; type: in vivo, male SD rats; details: for inhibition at 6 mg/kg: Rattus norvegicus, Neutrophil, po
Description: Animals were grouped as mentioned in Table 8. LPS at a concentration of 100 mcg ml^−1 was nebulized for 40 min at 0.4 ml/min and a pressure of 1.7 psig in a Perspex exposure chamber (1.5×1×1 ft) fitted with nebulizer (RCI Hudson). Control animals were given saline exposure under similar conditions. All the animals were treated as mentioned in Table 8. […] Bronchoalveolar lavage (BAL) was done after 4 h of LPS exposure. Animals were anesthetized with urethane (1.2 gm/kg/5 mL, i.p. in normal saline) and BAL was done with PBS (3 ml). This procedure was repeated three times and the BAL fluid was pooled for the measurement of total leukocyte. Remaining BAL fluid was centrifuged at 4000 rpm for 20 min. The pellet formed in the bottom of the tube was used for the smear preparation for differential leukocyte count estimation. The differential leukocyte count was done using Leishman's stain. […] Statistical significance was set at p<0.05.

[4] = system: LPS induced neutrophilia; experiment: LPS induced neutrophilia, Compound 52 and tiotropium; type: in vivo, female SD rats; details: for inhibition at 3 mg/kg: Rattus norvegicus, Neutrophil, po
Description: The effect of combination of Compound 52 and tiotropium on LPS induced neutrophilia in female SD rats was evaluated. Female SD rats were grouped as mentioned in Table 6. Compound 52 (3 mg/kg/5 ml) and tiotropium (1 mcg/ml as inhalation for 3 min at the rate of 0.05 ml/min) were administered 2 and 1 hour prior to LPS exposure respectively. LPS was nebulized at concentration of 100 mcg ml^−1 for 40 min at 0.4 ml min^−1 and a pressure of 1.7 psig in a perspex exposure chamber (1.5×1×1 ft) fitted with nebulizer (RCI Hudson). Control animals were given saline exposure under similar conditions.
as §1, with “Animal was” for “Animals were”, “leukocyte.” for “leukocyte. Remaining”, “min and the” for “min. The”, “estimation.” for “estimation. The smeared slides were fixed by alcohol and stained using Leishman's stain further carried for differential leukocyte count.”

[5] = molecular target: T1, human TRPA1 receptor (Homo sapiens, UniProt O75762); experiment: Inhibition of AITC induced cellular uptake of radioactive calcium in human TRPA1 expressing CHO cells; type: cell-based; details: read-out: hTRPA1 IC50 values
T1 construct: expressed in transfected cells; host or cells: CHO cells
T1 sequence (O75762 whole entry): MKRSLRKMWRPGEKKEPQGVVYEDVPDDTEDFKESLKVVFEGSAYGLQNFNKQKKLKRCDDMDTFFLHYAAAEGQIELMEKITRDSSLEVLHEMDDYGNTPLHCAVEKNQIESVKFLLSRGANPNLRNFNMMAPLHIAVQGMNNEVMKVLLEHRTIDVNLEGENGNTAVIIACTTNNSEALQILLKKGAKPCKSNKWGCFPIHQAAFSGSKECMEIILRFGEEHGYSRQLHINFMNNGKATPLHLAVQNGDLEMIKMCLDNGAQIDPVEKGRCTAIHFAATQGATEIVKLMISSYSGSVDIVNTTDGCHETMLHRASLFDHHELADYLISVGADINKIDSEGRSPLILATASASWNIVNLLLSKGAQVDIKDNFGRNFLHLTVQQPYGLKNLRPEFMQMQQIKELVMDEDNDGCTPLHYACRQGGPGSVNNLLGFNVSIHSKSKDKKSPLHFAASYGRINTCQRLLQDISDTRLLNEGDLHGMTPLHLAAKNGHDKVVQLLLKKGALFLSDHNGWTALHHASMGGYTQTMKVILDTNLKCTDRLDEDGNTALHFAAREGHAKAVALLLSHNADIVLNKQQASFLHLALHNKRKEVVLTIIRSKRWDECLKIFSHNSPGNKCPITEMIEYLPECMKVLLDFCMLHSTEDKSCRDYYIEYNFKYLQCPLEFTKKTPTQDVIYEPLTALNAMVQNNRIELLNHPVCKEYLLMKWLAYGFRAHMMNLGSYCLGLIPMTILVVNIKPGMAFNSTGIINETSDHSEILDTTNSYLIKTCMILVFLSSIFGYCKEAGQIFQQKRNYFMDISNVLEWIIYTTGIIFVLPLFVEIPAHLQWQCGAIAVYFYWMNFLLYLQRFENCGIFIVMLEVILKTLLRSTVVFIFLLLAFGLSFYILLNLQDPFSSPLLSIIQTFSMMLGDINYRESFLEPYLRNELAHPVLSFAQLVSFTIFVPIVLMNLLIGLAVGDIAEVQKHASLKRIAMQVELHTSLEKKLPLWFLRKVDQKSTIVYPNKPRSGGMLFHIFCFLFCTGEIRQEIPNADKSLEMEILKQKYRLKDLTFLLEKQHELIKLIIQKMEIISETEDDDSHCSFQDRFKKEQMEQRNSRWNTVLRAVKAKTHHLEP
Description: The human IC50 values were measured by the following method:
The inhibition of TRPA1 receptor activation was measured as inhibition of allylisothiocyanate (AITC) induced cellular uptake of radioactive calcium.

[6] = Compound 52 10 mg/kg i.p. 4 hour prior, tiotropium bromide 0.5 mcg/kg i.v., methacholine 60 mcg/kg i.v.
[7] = BAL 4 h after LPS, Compound 52 6 mg/kg p.o., ipratropium 1 mg/ml inh
[8] = BAL 4 h after LPS, Compound 52 3 mg/kg p.o., tiotropium 1 mcg/ml inh
[9] = 4 h, read-out: No of neutrophils, % inhibition (mean ± S.E.M.)

Q: What does the source list for `O=C(O[C@H]1C[N+]2(CCCOc3ccccc3)CCC1CC2)C(O)(c1cccs1)c1cccs1.[Br-]` [Aclidinium bromide, [(8R)-1-(3-phenoxypropyl)-1-azoniabicyclo[2.2.2]octan-8-yl]2-hydroxy-2,2-dithiophen-2-ylacetate bromide, reference compound]?
A: No of neutrophils (mean ± S.E.M.) [1]: 7.13 ± 1.03; inhibition at 3 mg/kg [1]: 21.1%

Q: Which inhibition at 10 mg/kg [2, 6] does the source give for `Cn1c(=O)c2c(CC(=O)Nc3nc(-c4ccc(F)c(C(F)(F)F)c4F)cs3)csc2n(C)c1=O` [Compound 52] here?
A: The inhibition at 10 mg/kg was 37.9 ± 6.7%.

Q: And the “Mean airway resistance (Mean ± SEM)” value [2, 6]?
A: The value was 0.77 ± 0.11 cmH2O*sec/ml.

Q: And the “No of neutrophils (mean ± S.E.M.)” value [1]?
A: The value was 6.73 ± 0.72.

Q: And the inhibition at 3 mg/kg [1]?
A: Its inhibition at 3 mg/kg is 20.4%.

Q: And the “No of neutrophils (mean ± S.E.M.)” value [3, 7]?
A: Its value is 8.4 ± 0.8.

Q: What about the inhibition at 6 mg/kg ([3]; BAL 4 h after LPS, Compound 52 6 mg/kg p.o., ipratropium 1 mg/ml inh, read-out: No of neutrophils, % inhibition (mean ± S.E.M.) (converted)) of the same compound?
A: Its inhibition at 6 mg/kg is -3.2%.

Q: What about the “No of neutrophils (mean ± S.E.M.)” value [4, 8] of the same compound?
A: The value was 6.7 ± 0.9.

Q: And the inhibition at 3 mg/kg ([4]; BAL 4 h after LPS, Compound 52 3 mg/kg p.o., tiotropium 1 mcg/ml inh, read-out: No of neutrophils, % inhibition (mean ± S.E.M.) (converted))?
A: Its inhibition at 3 mg/kg is 17.9%.

Q: How did the IC50 [5] turn out when `Cn1c(=O)c2c(CC(=O)/N=c3\scc(-c4ccc(F)c(C(F)(F)F)c4F)n3COP(=O)(O)O)csc2n(C)c1=O` [Compound 96] was run?
A: Its IC50 is 0.559 µM.

Q: Which “No of neutrophils (mean ± S.E.M.)” value [3, 7] does the source give for `CC(C)[N+]1(C)[C@@H]2CC[C@H]1C[C@@H](OC(=O)C(CO)c1ccccc1)C2` (some centres unmarked) [Ipratropium bromide, 8-azoniabicyclo (3.2.1) octane, 3-(3-hydroxy-1-oxo-2-phenylpropoxy)-8-methyl-8-(1-methylethyl)-, bromide monohydrate, reference compound] here?
A: Its value is 6.2 ± 0.6.

Q: And the inhibition at 6 mg/kg [3, 9]?
A: Its inhibition at 6 mg/kg is 23%.

Q: `C[N+]1(C)[C@@H]2C[C@@H](OC(=O)C(O)(c3cccs3)c3cccs3)C[C@H]1[C@@H]1O[C@@H]12` [Tiotropium bromide, (1α, 2β, 4β, 5α, 7β)-7-[(hydroxydi-2-thienylacetyl)oxy]-9,9-dimethyl-3-oxa-9-azoniatricyclo[3.3.1.02,4] nonane bromide monohydrate, reference compound] was tested. Which inhibition at 10 mg/kg [2] did it give?
A: Its inhibition at 10 mg/kg is -10.7 ± 23.4%.

Q: And the “Mean airway resistance (Mean ± SEM)” value [2, 6]?
A: Its value is 1.51 ± 0.32 cmH2O*sec/ml.

Q: And the “No of neutrophils (mean ± S.E.M.)” value [4, 8]?
A: Its value is 6.8 ± 0.7.

Q: And the inhibition at 3 mg/kg [4, 9]?
A: Its inhibition at 3 mg/kg is 18.9%.
